{"source": "paper PMC5218480", "about": "(PLoS ONE, 2017)", "system": "MV-4-11 cells", "assay": "Gene expression microarray analysis (Affymetrix PrimeView) and GSEA", "type": "cell-based, human", "design": "RFU PODN (11730768_x_at) / Fold change /veh PODN (11730768_x_at) / RFU LINC00158 (11744669_a_at) / Fold change /veh LINC00158 (11744669_a_at) / RFU DUSP10 (11751237_a_at) / Fold change /veh DUSP10 (11751237_a_at) / RFU ID3 (11757404_x_at) / Fold change /veh ID3 (11757404_x_at) / RFU PLEKHG5 (11737974_s_at) / Fold change /veh PLEKHG5 (11737974_s_at) / RFU LRRC4B (11730491_at) / Fold change /veh LRRC4B (11730491_at) / RFU GIMAP4 (11747438_a_at) / Fold change /veh GIMAP4 (11747438_a_at) / RFU KRT8 (11758183_x_at) / Fold change /veh KRT8 (11758183_x_at) / RFU CNN1 (11734310_a_at) / Fold change /veh CNN1 (11734310_a_at) / RFU VPS37D (11726825_at) / Fold change /veh VPS37D (11726825_at) / RFU C10orf10 (11716522_x_at) / Fold change /veh C10orf10 (11716522_x_at) / RFU KIR2DL2 /// KIR2DL4 /// KIR2DL5A /// KIR2DL5B /// KIR2DS1 /// KIR2DS2 /// KIR2DS3 /// KIR2DS4 /// KIR3DL3 /// KIR3DL3 /// KIR3DS1 (11738374_at) / Fold change /veh KIR2DL2 /// KIR2DL4 /// KIR2DL5A /// KIR2DL5B /// KIR2DS1 /// KIR2DS2 /// KIR2DS3 /// KIR2DS4 /// KIR3DL3 /// KIR3DL3 /// KIR3DS1 (11738374_at) / RFU C1QL1 (11718748_at) / Fold change /veh C1QL1 (11718748_at) / RFU TMPRSS4 (11747572_a_at) / Fold change /veh TMPRSS4 (11747572_a_at) / RFU HAMP (11756126_x_at) / Fold change /veh HAMP (11756126_x_at) / RFU RNFT2 (11725882_a_at) / Fold change /veh RNFT2 (11725882_a_at) / RFU NR4A2 (11747474_a_at) / Fold change /veh NR4A2 (11747474_a_at) / RFU ABCC12 (11746883_a_at) / Fold change /veh ABCC12 (11746883_a_at) / RFU TMEM136 (11760407_x_at) / Fold change /veh TMEM136 (11760407_x_at) / RFU CLDN22 /// WWC2 (11732394_at) / Fold change /veh CLDN22 /// WWC2 (11732394_at) / RFU HLA-DPB1 (11760878_x_at) / Fold change /veh HLA-DPB1 (11760878_x_at) / RFU SPINT1 (11716480_a_at) / Fold change /veh SPINT1 (11716480_a_at) / RFU GAP43 (11754022_s_at) / Fold change /veh GAP43 (11754022_s_at) / RFU A4GNT (11735810_at) / Fold change /veh A4GNT (11735810_at) / RFU PRB3 (11715151_x_at) / Fold change /veh PRB3 (11715151_x_at) / RFU TUBB4B (11761932_at) / Fold change /veh TUBB4B (11761932_at) / RFU CAPN14 (11732068_a_at) / Fold change /veh CAPN14 (11732068_a_at) / RFU TMCC2 (11721928_a_at) / Fold change /veh TMCC2 (11721928_a_at) / RFU IRGQ (11745062_a_at) / Fold change /veh IRGQ (11745062_a_at) / RFU FAM174B (11720279_a_at) / Fold change /veh FAM174B (11720279_a_at) / RFU TMPRSS4 (11748680_a_at) / Fold change /veh TMPRSS4 (11748680_a_at) / RFU FAM212B (11763350_a_at) / Fold change /veh FAM212B (11763350_a_at) / RFU PLEKHG5 (11743358_a_at) / Fold change /veh PLEKHG5 (11743358_a_at) / RFU ZSCAN30 (11745921_a_at) / Fold change /veh ZSCAN30 (11745921_a_at) / RFU CMKLR1 (11741424_a_at) / Fold change /veh CMKLR1 (11741424_a_at) / RFU LOC101060620 /// MAPK8IP1 (11723275_at) / Fold change /veh LOC101060620 /// MAPK8IP1 (11723275_at) / RFU SPTSSB (11747773_x_at) / Fold change /veh SPTSSB (11747773_x_at) / RFU PRSS12 (11739890_at) / Fold change /veh PRSS12 (11739890_at) / RFU BIN1 (11741810_x_at) / Fold change /veh BIN1 (11741810_x_at) / RFU WNT11 (11732464_a_at) / Fold change /veh WNT11 (11732464_a_at) / RFU C10orf10 (11716521_a_at) / Fold change /veh C10orf10 (11716521_a_at) / RFU C5orf56 (11738089_at) / Fold change /veh C5orf56 (11738089_at) / RFU CYB561 (11721691_x_at) / Fold change /veh CYB561 (11721691_x_at) / RFU ANKRD19P (11752326_a_at) / Fold change /veh ANKRD19P (11752326_a_at) / RFU OR2T12 /// OR2T33 /// OR2T8 (11738714_s_at) / Fold change /veh OR2T12 /// OR2T33 /// OR2T8 (11738714_s_at) / RFU VCAN (11748164_a_at) / Fold change /veh VCAN (11748164_a_at) / RFU JSRP1 (11732532_at) / Fold change /veh JSRP1 (11732532_at) / RFU KRTAP10-11 (11738290_x_at) / Fold change /veh KRTAP10-11 (11738290_x_at) / RFU MYO3A (11730013_a_at) / Fold change /veh MYO3A (11730013_a_at) / RFU EBF3 (11725865_a_at) / Fold change /veh EBF3 (11725865_a_at) / RFU CAMK2N1 (11719241_x_at) / Fold change /veh CAMK2N1 (11719241_x_at) / RFU C5orf56 (11738088_a_at) / Fold change /veh C5orf56 (11738088_a_at) / RFU OLFML3 (11715873_a_at) / Fold change /veh OLFML3 (11715873_a_at) / RFU LOC100653217 /// NTM (11731650_a_at) / Fold change /veh LOC100653217 /// NTM (11731650_a_at) / RFU MAPK11 (11762145_a_at) / Fold change /veh MAPK11 (11762145_a_at) / RFU FIZ1 (11724087_x_at) / Fold change /veh FIZ1 (11724087_x_at) / RFU OASL (11726364_x_at) / Fold change /veh OASL (11726364_x_at) / RFU SOX15 (11748057_x_at) / Fold change /veh SOX15 (11748057_x_at) / RFU CD79A (11719716_a_at) / Fold change /veh CD79A (11719716_a_at) / RFU HIST1H1D (11736915_at) / Fold change /veh HIST1H1D (11736915_at) / RFU CASKIN2 (11723855_a_at) / Fold change /veh CASKIN2 (11723855_a_at) / RFU LOC730098 (11760151_x_at) / Fold change /veh LOC730098 (11760151_x_at) / RFU OR4N2 (11742367_at) / Fold change /veh OR4N2 (11742367_at) / RFU PRRT2 (11749266_a_at) / Fold change /veh PRRT2 (11749266_a_at) / RFU SNX32 (11753110_a_at) / Fold change /veh SNX32 (11753110_a_at) / RFU CDHR5 (11726645_a_at) / Fold change /veh CDHR5 (11726645_a_at) / RFU RCAN1 (11760418_a_at) / Fold change /veh RCAN1 (11760418_a_at) / RFU FAM167A (11723789_a_at) / Fold change /veh FAM167A (11723789_a_at) / RFU FAM26E (11764081_at) / Fold change /veh FAM26E (11764081_at) / RFU ISYNA1 (11749810_s_at) / Fold change /veh ISYNA1 (11749810_s_at) / RFU ACY1 (11761880_at) / Fold change /veh ACY1 (11761880_at) / RFU 11764098_at / Fold change /veh 11764098_at / RFU SAMD14 (11745864_x_at) / Fold change /veh SAMD14 (11745864_x_at) / RFU NPB (11741838_a_at) / Fold change /veh NPB (11741838_a_at) / RFU TMPRSS6 (11731388_a_at) / Fold change /veh TMPRSS6 (11731388_a_at) / RFU KRTAP10-2 (11738614_at) / Fold change /veh KRTAP10-2 (11738614_at) / RFU ARHGAP8 /// PRR5-ARHGAP8 (11727945_x_at) / Fold change /veh ARHGAP8 /// PRR5-ARHGAP8 (11727945_x_at) / RFU KRTAP5-7 /// NADSYN1 (11734609_at) / Fold change /veh KRTAP5-7 /// NADSYN1 (11734609_at) / RFU RASL12 (11751679_a_at) / Fold change /veh RASL12 (11751679_a_at) / RFU CDKN2B (11736163_a_at) / Fold change /veh CDKN2B (11736163_a_at) / RFU PRF1 (11729649_at) / Fold change /veh PRF1 (11729649_at) / RFU, ZNF638 /// ZNF638-IT1 / Fold change vs veh, ZNF638 /// ZNF638-IT1 / RFU, PANK3 / Fold change vs veh, PANK3 / RFU, SH3YL1 / Fold change vs veh, SH3YL1 / RFU, ZEB2 / Fold change vs veh, ZEB2 / RFU, NRIP1 / Fold change vs veh, NRIP1 / RFU, PTTG1IP / Fold change vs veh, PTTG1IP / RFU, CAPN2 / Fold change vs veh, CAPN2 / RFU, MED14 / Fold change vs veh, MED14 / RFU, SNORA58 / Fold change vs veh, SNORA58 / RFU, C1orf63 / Fold change vs veh, C1orf63 / RFU, LRRFIP1 / Fold change vs veh, LRRFIP1 / RFU, NDUFAF7 / Fold change vs veh, NDUFAF7 / RFU, SLC12A2 / Fold change vs veh, SLC12A2 / RFU, IBTK / Fold change vs veh, IBTK / RFU, ESF1 / Fold change vs veh, ESF1 / Fold change vs veh, TMEM50B / RFU, TAOK1 / Fold change vs veh, TAOK1 / RFU, ACBD3 / Fold change vs veh, ACBD3 / RFU, TMA16 / Fold change vs veh, TMA16 / RFU, RWDD3 / Fold change vs veh, RWDD3 / RFU, BCAT1 / Fold change vs veh, BCAT1 / RFU, EDEM3 / Fold change vs veh, EDEM3 / RFU, TMEM33 / Fold change vs veh, TMEM33 / RFU, WDR75 / Fold change vs veh, WDR75 / RFU, AHCTF1 / Fold change vs veh, AHCTF1 / RFU, TFRC / Fold change vs veh, TFRC / RFU, ZDHHC17 / Fold change vs veh, ZDHHC17 / RFU, NOM1 / Fold change vs veh, NOM1 / RFU, ARL8B / Fold change vs veh, ARL8B / RFU, ZBTB11 / Fold change vs veh, ZBTB11 / RFU, TAMM41 / Fold change vs veh, TAMM41 / RFU, KIAA1704 /// LOC100996395 / Fold change vs veh, KIAA1704 /// LOC100996395 / RFU, ING1 / Fold change vs veh, ING1 / RFU, TRMT61B / Fold change vs veh, TRMT61B / RFU, FUBP3 / Fold change vs veh, FUBP3 / RFU, TP53 / Fold change vs veh, TP53 / RFU, TNKS2 / Fold change vs veh, TNKS2 / RFU, ZFP14 / Fold change vs veh, ZFP14 / RFU, ACTR2 / Fold change vs veh, ACTR2 / RFU, PPP3R1 / Fold change vs veh, PPP3R1 / RFU, PIK3R1 / Fold change vs veh, PIK3R1 / RFU, HNRNPA1 / Fold change vs veh, HNRNPA1 / RFU, RNF170 / Fold change vs veh, RNF170 / RFU, ZNF28 / Fold change vs veh, ZNF28 / RFU, RNGTT / Fold change vs veh, RNGTT / RFU, OGT / Fold change vs veh, OGT / RFU, BRD1 / Fold change vs veh, BRD1 / RFU, MARS / Fold change vs veh, MARS / RFU, ZNF655 / Fold change vs veh, ZNF655 / RFU, FAHD1 / Fold change vs veh, FAHD1 / RFU, BDP1 / Fold change vs veh, BDP1 / RFU, LRRCC1 / Fold change vs veh, LRRCC1 / RFU, ARID1A / Fold change vs veh, ARID1A / RFU, ZNF146 / Fold change vs veh, ZNF146 / RFU, ZNF330 / Fold change vs veh, ZNF330 / RFU, GPN3 / Fold change vs veh, GPN3 / RFU, C9orf123 / Fold change vs veh, C9orf123 / RFU, N4BP2L2 / Fold change vs veh, N4BP2L2 / RFU, ARFIP1 / Fold change vs veh, ARFIP1 / RFU, FAM179B / Fold change vs veh, FAM179B / RFU, BCL10 / Fold change vs veh, BCL10 / RFU, UHRF1BP1L / Fold change vs veh, UHRF1BP1L / RFU, BET1 / Fold change vs veh, BET1 / RFU, CNOT2 / Fold change vs veh, CNOT2 / RFU, ZNF268 / Fold change vs veh, ZNF268 / Fold change vs veh, ZNF507 / RFU, DGCR2 / Fold change vs veh, DGCR2 / RFU, WDSUB1 / Fold change vs veh, WDSUB1 / Fold change vs veh, HSP90B1 /// MIR3652 / RFU, ADSS / Fold change vs veh, ADSS / RFU, GK / Fold change vs veh, GK / RFU, ZNF148 / Fold change vs veh, ZNF148 / RFU, TAF9 / Fold change vs veh, TAF9 / RFU, SLC1A5 / Fold change vs veh, SLC1A5 / RFU, SLMO2 / Fold change vs veh, SLMO2 / RFU, ABCC4 / Fold change vs veh, ABCC4 / RFU, LOC101060439 /// RAP1B / Fold change vs veh, LOC101060439 /// RAP1B / RFU, RFX7 / Fold change vs veh, RFX7 / RFU, GTPBP10 / Fold change vs veh, GTPBP10 / RFU, CNEP1R1 / Fold change vs veh, CNEP1R1 / RFU, BIVM-ERCC5 /// ERCC5 / Fold change vs veh, BIVM-ERCC5 /// ERCC5 / RFU, ILF3 / Fold change vs veh, ILF3 / RFU 11762660_at / Fold change /veh 11762660_at / RFU VCAN (11757783_s_at) / Fold change /veh VCAN (11757783_s_at) / RFU DDX43 (11728927_at) / Fold change /veh DDX43 (11728927_at) / RFU KRT8 (11758188_x_at) / Fold change /veh KRT8 (11758188_x_at) / RFU NKD1 (11759106_at) / Fold change /veh NKD1 (11759106_at) / RFU SRD5A1 (11742802_a_at) / Fold change /veh SRD5A1 (11742802_a_at) / RFU TPSAB1 /// TPSB2 (11721975_s_at) / Fold change /veh TPSAB1 /// TPSB2 (11721975_s_at) / RFU GSTM3 (11746129_a_at) / Fold change /veh GSTM3 (11746129_a_at) / RFU IL23R (11737362_x_at) / Fold change /veh IL23R (11737362_x_at) / RFU TMEM51 (11727254_a_at) / Fold change /veh TMEM51 (11727254_a_at) / RFU PIWIL2 (11732686_x_at) / Fold change /veh PIWIL2 (11732686_x_at) / RFU ORM1 (11744905_x_at) / Fold change /veh ORM1 (11744905_x_at) / RFU CCDC152 (11743942_at) / Fold change /veh CCDC152 (11743942_at) / RFU ECM1 (11717891_a_at) / Fold change /veh ECM1 (11717891_a_at) / RFU IL23R (11748794_a_at) / Fold change /veh IL23R (11748794_a_at) / RFU TNFAIP8L3 (11732012_x_at) / Fold change /veh TNFAIP8L3 (11732012_x_at) / RFU MBOAT4 (11741988_at) / Fold change /veh MBOAT4 (11741988_at) / RFU 11764193_at / Fold change /veh 11764193_at / RFU TMEM53 (11763286_at) / Fold change /veh TMEM53 (11763286_at) / RFU MAGEB2 (11727129_at) / Fold change /veh MAGEB2 (11727129_at) / RFU TMEM200A (11744735_a_at) / Fold change /veh TMEM200A (11744735_a_at) / RFU CCDC152 (11751479_a_at) / Fold change /veh CCDC152 (11751479_a_at) / RFU FAM211A (11726209_a_at) / Fold change /veh FAM211A (11726209_a_at) / RFU RGS16 (11746705_a_at) / Fold change /veh RGS16 (11746705_a_at) / RFU VCAN (11755009_s_at) / Fold change /veh VCAN (11755009_s_at) / RFU RHOB (11743442_s_at) / Fold change /veh RHOB (11743442_s_at) / RFU RGS16 (11720943_a_at) / Fold change /veh RGS16 (11720943_a_at) / RFU RGS16 (11720944_at) / Fold change /veh RGS16 (11720944_at) / RFU, VPS4B / Fold change vs veh, VPS4B / RFU, CREB1 / Fold change vs veh, CREB1 / RFU, DNAJC13 / Fold change vs veh, DNAJC13 / RFU, GNAQ / Fold change vs veh, GNAQ / RFU, CDK5R1 / Fold change vs veh, CDK5R1 / RFU, ZRANB3 / Fold change vs veh, ZRANB3 / RFU, CUL4A / Fold change vs veh, CUL4A / RFU, CCNY / Fold change vs veh, CCNY / RFU, UFL1 / Fold change vs veh, UFL1 / RFU, COG3 / Fold change vs veh, COG3 / RFU, DIAPH2 / Fold change vs veh, DIAPH2 / RFU, SKA2 / Fold change vs veh, SKA2 / RFU, AFF3 / Fold change vs veh, AFF3 / RFU, LMF1 / Fold change vs veh, LMF1 / RFU, IPO11 / Fold change vs veh, IPO11 / RFU, DFFB / Fold change vs veh, DFFB / RFU, FOXP1 / Fold change vs veh, FOXP1 / RFU, CARD8 / Fold change vs veh, CARD8 / RFU, STRN3 / Fold change vs veh, STRN3 / RFU, ADK / Fold change vs veh, ADK / RFU, RASSF2 / Fold change vs veh, RASSF2 / RFU, WIPF1 / Fold change vs veh, WIPF1 / RFU, LARP1B / Fold change vs veh, LARP1B / RFU, RASA1 / Fold change vs veh, RASA1 / RFU, RB1 / Fold change vs veh, RB1 / RFU, PPFIA1 / Fold change vs veh, PPFIA1 / RFU, MAT2A / Fold change vs veh, MAT2A / RFU, CCT5 / Fold change vs veh, CCT5 / RFU, WDR92 / Fold change vs veh, WDR92 / RFU, CUX1 / Fold change vs veh, CUX1 / RFU, TTC7A / Fold change vs veh, TTC7A / RFU, TMEM135 / Fold change vs veh, TMEM135 / RFU, DEPTOR / Fold change vs veh, DEPTOR / RFU, CPM / Fold change vs veh, CPM / RFU, DNAJB6 / Fold change vs veh, DNAJB6 / RFU, CACNA2D3 / Fold change vs veh, CACNA2D3 / RFU, DTX4 / Fold change vs veh, DTX4 / RFU, TFCP2 / Fold change vs veh, TFCP2 / RFU, GMCL1 /// GMCL1P1 / Fold change vs veh, GMCL1 /// GMCL1P1 / RFU, AEBP2 / Fold change vs veh, AEBP2 / RFU, SNHG1 /// SNORD22 /// SNORD25 /// SNORD26 /// SNORD27 /// SNORD28 /// SNORD29 /// SNORD31 / Fold change vs veh, SNHG1 /// SNORD22 /// SNORD25 /// SNORD26 /// SNORD27 /// SNORD28 /// SNORD29 /// SNORD31 / Fold change (Aza/veh), C12orf56 (ProbeSet 11735607_a_at) / Fold change (ACY-1035/veh), C12orf56 (ProbeSet 11735607_a_at) / Fold change (Aza/veh), FGFR1OP (ProbeSet 11751329_s_at) / Fold change (ACY-1035/veh), FGFR1OP (ProbeSet 11751329_s_at) / Fold change (Aza/veh), VPS36 (ProbeSet 11739960_a_at) / Fold change (ACY-1035/veh), VPS36 (ProbeSet 11739960_a_at) / RFU SYPL1 (11715823_x_at) / Fold change /veh SYPL1 (11715823_x_at) / RFU IGFBP7 (11715501_s_at) / Fold change /veh IGFBP7 (11715501_s_at) / RFU REEP3 (11722064_at) / Fold change /veh REEP3 (11722064_at) / RFU IGLL1 (11728026_x_at) / Fold change /veh IGLL1 (11728026_x_at): dose or concentration left out as unconfirmed", "settings": "ProbeSet 11745260_x_at; LIST B", "data": [{"smiles": "Nc1ccc(-c2cccs2)cc1NC(=O)c1ccc2c(c1)cc(C1CC1)n2CCN1CCOCC1", "note": "[ACY-1035]", "values": [{"measurement": "RFU, SLC12A2", "value": 27.90, "unit": "RFU"}]}]}
